According to US10414774B2, “Compound useful for altering the levels of bile acids for the treatment of diabetes and cardiometabolc disease” (Merck Sharp & Dohme Corp., priority 2016, dated 2019):

Molecular target: T1, Human CYP8B1 (Homo sapiens, UniProt Q9UNU6)
T1 sequence (Q9UNU6 1-501): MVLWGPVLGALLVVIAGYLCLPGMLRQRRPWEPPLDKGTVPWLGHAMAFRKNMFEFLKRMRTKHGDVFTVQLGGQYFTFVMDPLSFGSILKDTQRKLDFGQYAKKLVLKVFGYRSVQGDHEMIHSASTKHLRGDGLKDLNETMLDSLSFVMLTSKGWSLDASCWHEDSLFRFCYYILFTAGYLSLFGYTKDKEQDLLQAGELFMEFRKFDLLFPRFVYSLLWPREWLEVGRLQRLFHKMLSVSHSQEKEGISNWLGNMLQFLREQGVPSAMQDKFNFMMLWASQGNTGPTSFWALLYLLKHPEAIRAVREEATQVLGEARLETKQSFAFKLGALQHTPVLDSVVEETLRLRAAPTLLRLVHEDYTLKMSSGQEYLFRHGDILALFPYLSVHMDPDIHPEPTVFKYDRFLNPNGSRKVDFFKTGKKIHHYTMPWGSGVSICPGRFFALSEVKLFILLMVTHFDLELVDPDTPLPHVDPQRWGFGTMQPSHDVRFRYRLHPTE
Assay: not given
Conditions: not given

Work on “6-chloro-4-[(3S,4S)-4-(6,7-dihydro[1,2,3]triazolo[1,5-a]pyrazin-5-(4H)-ylcarbonyl)-3-methylpiperidin-1-yl]-2-methylquinoline-3-carbonitrile [Example 94]” yielded an IC50 of 4.5 µM.

Molecular target: T1, Human CYP8B1
Assay: Human CYP8B1 Liver Microsome Assay
Conditions: Human CYP8B1 IC50, human liver microsomes; substrate 7a-hydroxy-4-cholesten-3-one, NADPH; RapidFire MS detection of 7α,12α-dihydroxy-4-cholesten-3-one

Going from C[C@@H]1CN(c2c(C#N)cnc3cc(Br)ccc23)CC[C@@H]1C(=O)N1CCn2c(nnc2C(F)(F)F)C1 [Example 4, 7-bromo-4-[(3S,4S)-3-methyl-4-{[3-(trifluoromethyl)-5,6-dihydro[1,2,4]triazolo[4,5-a]pyrazin-7(8H)-yl]carbonyl}piperidin-1-yl]quinoline-3-carbonitrile] to C[C@@H]1CN(c2c(C#N)cnc3c(Cl)c(F)ccc23)CC[C@@H]1C(=O)N1CCn2c(nnc2C(F)(F)F)C1 [Example 13, 8-chloro-7-fluoro-4-[(3S,4S)-3-methyl-4-{[3-(trifluoromethyl)-5,6-dihdyro[1,2,4]triazolo[4,3-a]pyrazin-7(8H)-yl]carbonyl}piperidin-1-yl]quinoline-3-carbonitrile], the IC50 rises from 0.00036 µM to 0.0033 µM (9.2-fold). The first is the more potent here.

CC1CC(C(=O)N2CCn3c(nnc3C(F)(F)F)C2)CCN1c1c(C#N)cnc2ccc(Cl)cc12 (single isomer, unassigned) [Example 73c, 6-chloro-4-[(2R,4S) or (2S,4R)-2-methyl-4-{[3-(trifluoromethyl)-5,6-dihydro[1,2,4]triazolo[4,3-a]pyrazin-7(8H)-yl]carbonyl}piperidin-1-yl]quinoline-3-carbonitrile] and COC(=O)c1nc2ccc(Cl)cc2c(N2CC[C@H](C(=O)N3CCn4c(nnc4C(F)(F)F)C3)[C@H](C)C2)c1C#N [Example 59, methyl 6-chloro-3-cyano-4-[(3S,4S)-3-methyl-4-{[3-(trifluoromethyl)-5,6-dihydro[1,2,4]triazolo[4,3-a]pyrazin-7(8H)-yl]carbonyl}piperidin-1-yl]quinoline-2-carboxylate] are within 1.5-fold of each other in IC50: 0.016 µM for the first, 0.018 µM for the second.

Going from Cc1nc2ccc(Cl)cc2c(N2CC[C@H](C(=O)N3CCc4sc(C(F)(F)F)nc4C3)[C@H](C)C2)c1C#N [Example 98, 6-chloro-2-methyl-4-[(3S,4S)-3-methyl-4-{[2-(trifluoromethyl)-6,7-dihydro[1,3]thiazolo[4,5-c]pyridin-5(4H)-yl]carbonyl}piperidin-1-yl]quinoline-3-carbonitrile] to C=Cc1ccc2nc(C)c(C#N)c(N3CCC(C(=O)N4CCn5c(nnc5C(F)(F)F)C4)CC3)c2c1 [Example 54, 2-methyl-4-(4-(3-(trifluoromethyl)-5,6,7,8-tetrahydro-[1,2,4]triazolo[4,3-a]pyrazine-7-carbonyl)piperidin-1-yl)-6-vinylquinoline-3-carbonitrile], the IC50 rises from 0.019 µM to 0.149 µM (7.8-fold). The first is the more potent here.

First: COc1cccc2c(N3CC[C@H](C(=O)N4CCn5c(nnc5C(F)(F)F)C4)[C@H](C)C3)c(C#N)cnc12 [Example 11, 8-methoxy-4-[(3S,4S)-3-methyl-4-{[3-(trifluoromethyl)-5,6-dihydro[1,2,4]triazolo[4,3-a]pyrazin-7(8H)-yl]carbonyl}piperidin-1-yl]quinoline-3-carbonitrile]
Second: C[C@@H]1CN(c2c(C#N)cnc3c(F)cc(C4CC4)cc23)CC[C@@H]1C(=O)N1CCn2c(nnc2C(F)(F)F)C1 [Example 86, 6-cyclopropyl-8-fluoro-4-((3S,4S)-3-methyl-4-(3-(trifluoromethyl)-5,6,7,8-tetrahydro-[1,2,4]triazolo[4,3-a]pyrazine-7-carbonyl)piperidin-1-yl)quinoline-3-carbonitrile]
The IC50 of the first is 6.2-fold higher: 0.0025 µM for the first, 0.0004 µM for the second.

In the case of CCc1ncc2n1CCN(C(=O)C1CCN(c3c(C#N)cnc4ccc(Cl)cc34)CC1)C2 [Example 114, 6-chloro-4-{4-[(3-ethyl-5,6-dihydroimidazo[1,5-a]pyrazin-7(8H)-yl)carbonyl]piperidin-1-yl}quinoline-3-carbonitrile], the IC50 is reported as 1.22 µM.
